Experimental data from ChEMBL document CHEMBL3507680, “University of Dundee, Gates Library screen for HepG2 cell viability”.

Assay: Human HepG2 cell viability assay in 384 well format
Type: toxicity, cell-based
Design: dose 125 nL, time 70.5 hour; cytotoxicity at 70.5 h: concentration not given beside the values
Details: HepG2 cells, read-out: Inhibition

SMILES | cytotoxicity at 70.5 h [%]
CN(C)CCCN(C)C1CCN(c2cccc(-c3cscn3)c2)CC1 | -2.04
COCCCN1C(=O)CC[C@H]2CN(Cc3ccc4nonc4c3)CC[C@H]21 | -5.42
CC(=O)Nc1cccc(CN2CCCC2C(=O)Nc2nccs2)c1 (stereo unspecified) | 17.5
Cc1nc(C)c(C(=O)N2CCCC2(C)C(=O)NC2CCCC2)s1 (stereo unspecified) | -3.63
O=C1COc2cc(S(=O)(=O)NCCC3=CCCCC3)c(Br)cc2N1 | -8
COC(=O)N1CCC(Nc2cccc(F)c2C(C)=O)CC1 | -10.1
Cc1cn2c(n1)CCC(NC(=O)c1ccc(CS(C)(=O)=O)cc1)C2 (stereo unspecified) | -1.89
Cc1ccc(C(=O)N2CCC3(CC2)COCCN(S(C)(=O)=O)C3)cc1C | -6.37
Cc1c(CN2CCCCC2)c(O)n(CCO)c(=O)c1C#N | -2.11
Cc1cc(C)c(CNC(=O)NC(C)c2ccc3c(c2)CCC3)c(=O)[nH]1 (stereo unspecified) | 25.3
Cc1nn(C)c(C)c1C1CCCN1CC(=O)NCc1ccco1 (stereo unspecified) | 7.36
Cc1ccccc1NC(=O)N1CC[C@@H]2CN(C)S(=O)(=O)[C@@H]2CC1 | -8.26
CN(CC(=O)NC1(C#N)CCCC1)C1CCCN(c2cccnn2)C1 (stereo unspecified) | -1.63
O=C(c1cnc(Nc2ccccc2)nc1)N1CCC2(CCNCC2)CC1 | -13.5
CN(CCN1CCOCC1)C(=O)CCCc1ccccc1 | -2.26
CCN(C(=O)CN1CCCC1c1ccc(OC)cc1)c1ccccc1 (stereo unspecified) | 2.59
O=C(NCCc1ccccn1)C1=NN(c2ccccc2)C(=O)CN1 | -6.71
Cc1cccc(CN2CCC(c3nccn3CC(N)=O)CC2)n1 | 22.7
CCn1cnc(NC(=O)NCC2CCS(=O)(=O)CC2)n1 | -19.4
Cc1nnc2n1CCN(C(C(N)=O)c1ccc(F)cc1)C2 (stereo unspecified) | -16.8
CCC1CN(CC(=O)N2CCC2)CCN1CCOC (stereo unspecified) | -2.85
CC(CN1CCOCC1)NC(=O)NCc1ccoc1 (stereo unspecified) | 4.07
O=C(NCc1ccoc1)NC1CCN(c2ncccn2)CC1 | 16.1

SMILES | cytotoxicity at 70.5 h [%]
O=C(Cn1cccn1)N(CCO)CCSc1ccc(Cl)cc1 | -11.6
CCN(Cc1c(F)cccc1F)C(=O)c1ccncc1O | -7.76
C[C@@H]1CN(C2(C(=O)N3CCOCC3)Cc3ccccc3C2)C[C@H](C)O1 | 2.82
NC(=O)c1cccc(CCNC(=O)N2Cc3ccccc3C2)c1 | -2.71
CCC(O)CN1CCN(C(=O)c2sccc2OC)CC1 (stereo unspecified) | 0.647
CCOc1ccc(CN(C)C(C)C(=O)Nc2cc(C)no2)cc1 (stereo unspecified) | -5.64
CCOc1cc(F)ccc1NC1CCN(CC(F)(F)F)C1=O (stereo unspecified) | -0.756
Cc1ccc2c(CC(=O)N(C)CCN(C)C)c(C)[nH]c2c1C | 2.2
CCC(C)N(Cc1ccncc1)C(=O)CCSC (stereo unspecified) | -10.6
CCc1nc(CN(C)CC(=O)N(C)C2CC2)cs1 | -12.2
Cc1cc(C)n2nc(CC(=O)N[C@H]3C[C@H]4CN(C)CCN4C3)nc2n1 | -7.89
O=C(c1cccnc1N1CCOC(c2ccc(F)cc2)C1)N1CCCC1 (stereo unspecified) | -14.7
Cn1ncc2c1NC(=O)CC2c1ccc(F)cc1 (stereo unspecified) | 1.96
COc1ccccc1CCN1CCCC(CN(C)Cc2ccc(C)o2)C1 (stereo unspecified) | -8.57
Cc1c(C(=O)N2CCC(c3nc(C)n4ccsc34)CC2)cnn1C | -4.61
O=C(N[C@@H]1CN(Cc2ccc(F)cc2)C[C@H]1O)c1cscn1 | -1.52
COCCN(CCOC)C(=O)NC1CCCCC1 | -4.8
O=C(NCC1(O)CCCC1)c1ccc2nsnc2c1 | -20.9
CC(NC(=O)c1cc(N2CCNC2=O)ccc1F)c1ccc(F)cc1 (stereo unspecified) | -4.65
CC(Cn1cncn1)Nc1ccc(-c2nccn2C)nn1 (stereo unspecified) | -7.86
O=C(c1ccoc1)N1CCCn2nnc(COCC3CC3)c2C1 | -4.24
c1ccc2c(c1)COC1(CCCCC1)N2 | -4.51
Cc1noc(CNc2ccc(CC(=O)N3CCSCC3)cc2)n1 | -5.52
